For the assay, the system named is Multidrug Resistant Acinetobacter baumannii Isolates. The experiment in a line: MIC of the micro-emulsions by broth dilution. In kind it is cell-based. The method, then:
Nine sterile 7 mL PJ tubes were arranged in a rack in a row. Each tube contained one mL sterile MHB. Seven tubes were labeled as 7.847 mg+256 μg/mL, 3.923 mg+128 μg/mL, 1.961 mg+64 μg/mL, 0.980 mg+32 μg/mL, 0.490 mg+16 μg/mL, 0.245 mg+8 μg/mL and 0.122 mg+4 μg/mL. The eighth and ninth tubes were labeled as positive and negative controls, respectively.
The micro-emulsion made according to Example 1 was serially diluted to give two-fold dilutions as follows: one mL of the micro-emulsion of Example 1 was dispensed in the first tube (labeled as 7.847 mg+256 μg/mL) to give a concentration of 15.69 mg+512 μg drug/mL MHB. One mL of the first tube was added to the second tube (labeled as 3.923 mg+128 μg/mL) to give a concentration of 7.847 mg+256 μg drug/mL MHB. One mL of the second tube was transferred to the third tube (labeled as 1.961 mg+64 μg/mL) to give a concentration of 3.923 mg+128 drug/mL MHB. One mL of the third tube was added to the fourth tube (labeled as 0.980 mg+32 μg/mL) to give a concentration of 1.961 mg+64 drug/mL MHB. One mL of the fourth tube was dispensed in the fifth tube (labeled as 0.490 mg+16 μg/mL) to give a concentration of 0.980 mg+32 drug/mL MHB. One mL of the fifth tube was dispensed in the sixth tube (labeled as 0.245 mg+8 μg/mL) to give a concentration of 0.490 mg+16 μg drug/mL MHB. One mL of the sixth tube was added to the seventh tube (labeled as 0.122 mg+4 μg/mL) to give a concentration of 0.245 mg+8 μg drug/mL MHB. One mL of the content of the seventh tube was discarded. Inoculum suspensions (at 1-2×10^8 CFU/mL) were diluted 1:100 in MHB to obtain 1×10^6 CFU/mL. One mL of the diluted inoculum suspension (1×10^6 CFU/mL) was transferred to each tube except tube number nine.
Another nine sterile 7 mL PJ tubes were arranged in a rack in a row. Each tube contained one mL sterile MHB. […]
All inoculated tubes were incubated for 16-20 hours at 37° C. aerobically. After this incubation period, MIC was determined manually by observing the lowest concentration of antimicrobial agent showing no visible growth (turbidity). […]
A general note: Dilution methods test growth across graded concentrations, often in twofold steps.

Regarding `CC1=CC(=O)C(C(C)C)=CC1=O` [Thymoquinone, 2-isopropyl-5-methylbenzo-1,4-quinone], the MIC (usually the lowest concentration that inhibits growth of the organism) runs as follows: (Isolate 121) 64 µg/mL; (Isolate 127) 32 µg/mL; (Isolate 129) 32 µg/mL.
